The source made the active and inactive calls. How the calls were made is not given here.
System: CCRIS mutagenicity, Ames/micronucleus/aberration tests
Assay: CCRIS mutagenicity studies
[1] = Test System: AMES SALMONELLA TYPHIMURIUM, Strain/Indicator: TA98, Metabolic Activation: NONE, Method: PREINCUBATION
[2] = Test System: AMES SALMONELLA TYPHIMURIUM, Strain/Indicator: TA100, Metabolic Activation: NONE, Method: PREINCUBATION
[3] = Test System: AMES SALMONELLA TYPHIMURIUM, Strain/Indicator: TA100, Metabolic Activation: RAT, LIVER, S-9, PCB, Method: PREINCUBATION

Structure (SMILES): CCC(C(C)O)[N+](=O)[O-] (stereo not drawn)
- mutagenic call [1]: inactive; negative
- mutagenic call (Test System: AMES SALMONELLA TYPHIMURIUM, Strain/Indicator: TA98, Metabolic Activation: RAT, LIVER, S-9, AROCLOR, Method: PREINCUBATION): inactive; negative
- mutagenic call [2]: inactive; negative
- mutagenic call (Test System: AMES SALMONELLA TYPHIMURIUM, Strain/Indicator: TA100, Metabolic Activation: RAT, LIVER, S-9, AROCLOR, Method: PREINCUBATION): inactive; negative
- mutagenic call (Test System: AMES SALMONELLA TYPHIMURIUM, Strain/Indicator: TA102, Metabolic Activation: NONE, Method: PREINCUBATION): inactive; negative
- mutagenic call (Test System: AMES SALMONELLA TYPHIMURIUM, Strain/Indicator: TA102, Metabolic Activation: RAT, LIVER, S-9, AROCLOR, Method: PREINCUBATION): inactive; negative

Structure (SMILES): Nc1ccc(Oc2ccc(Oc3ccc(N)cc3)cc2)cc1
- mutagenic call [1]: inactive; negative
- mutagenic call [2]: inactive; negative
- mutagenic call [3]: active; positive

Structure (SMILES): CC[C@@]1(O)C(=O)OCc2c1cc1n(c2=O)Cc2cc3ccccc3nc2-1
- mutagenic call (End Point: In vitro micronucleus, Test System: Human lymphoblastoid TK6 cells, Metabolic Activation: None): active; positive (no dose response; toxicity may play a role)
- mutagenic call (End Point: In vivo micronucleus, Test System: Peripheral blood reticulocytes, Species: Mouse, Strain/Sex: CD2F1, Route: Oral): active; positive
- mutagenic call (End Point: In vivo micronucleus, Test System: Peripheral blood reticulocytes, Species: Mouse, Strain/Sex: Muta Mouse, Route: Oral): active; positive
- mutagenic call (Test System: CHINESE HAMSTER V-79, Strain/Indicator: V-79 (HPRT)/6-THIOGUANINE, Metabolic Activation: NONE): active; positive
- mutagenic call (Test System: LacZ plasmid mouse (C57BL/6J transgenic), Strain/Indicator: LacZ Mutant frequency, Method: Bone marrow and liver harvested 35 days after last dose): inactive; negative
- mutagenic call (Test System: LacZ transgenic mouse (Muta Mouse), Strain/Indicator: LacZ Mutant frequency, Method: Bone marrow and liver harvested 35 days after last dose): inactive; negative
- mutagenic call (Test System: LacZ transgenic mouse (Muta Mouse), Strain/Indicator: LacZ Mutant frequency, Method: Liver and kidney harvested 37 days after last dose): inactive; negative

Structure (SMILES): c1ccc2c(c1)CC[C@@H]1CCC[C@@H]3O[C@]213
- mutagenic call (Test System: AMES SALMONELLA TYPHIMURIUM, Strain/Indicator: TA98, Metabolic Activation: NONE, Method: STANDARD PLATE): inactive; negative
- mutagenic call (Test System: AMES SALMONELLA TYPHIMURIUM, Strain/Indicator: TA100, Metabolic Activation: NONE, Method: STANDARD PLATE): inactive; negative

Structure (SMILES): CC(=O)N[C@@H](CS)C(=O)O
- mutagenic call (Test System: AMES SALMONELLA TYPHIMURIUM, Strain/Indicator: TA92, Metabolic Activation: NONE, Method: STANDARD PLATE): inactive; negative
- mutagenic call (Test System: AMES SALMONELLA TYPHIMURIUM, Strain/Indicator: TA92, Metabolic Activation: RAT, KIDNEY, S-9, Method: STANDARD PLATE): active; positive
- mutagenic call (Test System: AMES SALMONELLA TYPHIMURIUM, Strain/Indicator: TA97, Metabolic Activation: NONE, Method: STANDARD PLATE): inactive; negative
- mutagenic call (Test System: AMES SALMONELLA TYPHIMURIUM, Strain/Indicator: TA97, Metabolic Activation: RAT, KIDNEY, S-9, Method: STANDARD PLATE): active; positive
- mutagenic call (Test System: AMES SALMONELLA TYPHIMURIUM, Strain/Indicator: TA102, Metabolic Activation: NONE, Method: STANDARD PLATE): inactive; negative
- mutagenic call (Test System: AMES SALMONELLA TYPHIMURIUM, Strain/Indicator: TA104, Metabolic Activation: NONE, Method: STANDARD PLATE): inactive; negative
- mutagenic call (Test System: AMES SALMONELLA TYPHIMURIUM, Strain/Indicator: TA104, Metabolic Activation: RAT, KIDNEY, S-9, Method: STANDARD PLATE): active; positive
- mutagenic call (Test System: CHINESE HAMSTER V-79, Strain/Indicator: V-79/6-THIOGUANINE, Metabolic Activation: NONE, Method: STANDARD PLATE): inactive; negative

Structure (SMILES): C[Si](C)(C)CN=[N+]=[N-]
- mutagenic call [2]: inactive; negative
- mutagenic call [3]: active; positive

Reference: PubChem BioAssay AID1259407 (Chemical Carcinogenesis Research Information System (CCRIS), 2018)
